Experimental data from US10640495B2, “Heterocycle derivatives having TrkA inhibitory activity” (Shionogi & Co., Ltd., priority 2015, dated 2020).
Where two headings read alike, the source gives them in different places.

Molecular target: human TrkA (Homo sapiens (Human), UniProt P04629)
Experiment: Human TrkA inhibition assay (Test Example 2)
Type: biochemical
How it was run: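 Recombinant TrkA (1 nmol/L) was preincubated 15 min at room temperature with compound in HEPES/MgCl2/DTT buffer, then reacted with FL-peptide 27 (1.5 μmol/L) and ATP (500 μmol/L) for 120 min at 37 °C. After EDTA stop, substrate phosphorylation was read by microfluidic mobility shift. IC50 came from logistic regression over 3-fold dilution series.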

[1] = human TrkA 1 nmol/L, ATP 500 μmol/L, 120 min at 37° C., read-out: IC50 values (TrkA phosphorylation inhibition)
[2] = Table 157, human TrkA inhibition, read-out: IC50
[3] = Table 153, human TrkA inhibition, read-out: IC50
[4] = Table 155, human TrkA inhibition, read-out: IC50
[5] = Table 154, human TrkA inhibition, read-out: IC50
[6] = Table 156, human TrkA inhibition, read-out: IC50

Sequence of human TrkA (P04629 440-796): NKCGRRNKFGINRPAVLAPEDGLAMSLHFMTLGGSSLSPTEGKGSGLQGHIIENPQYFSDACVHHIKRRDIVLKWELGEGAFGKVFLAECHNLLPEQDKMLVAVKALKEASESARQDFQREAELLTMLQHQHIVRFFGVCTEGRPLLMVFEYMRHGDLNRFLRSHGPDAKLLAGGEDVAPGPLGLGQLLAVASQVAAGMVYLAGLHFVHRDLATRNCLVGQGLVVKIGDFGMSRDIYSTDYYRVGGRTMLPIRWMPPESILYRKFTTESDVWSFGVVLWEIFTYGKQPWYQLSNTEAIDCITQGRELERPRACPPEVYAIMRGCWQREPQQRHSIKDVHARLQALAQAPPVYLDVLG

COCCN1C[C@@H](NC(=O)Nc2c(C)c(-c3cnc4c(c3)CC(=O)N4C)nn2-c2ccccc2)[C@H](c2ccnc(F)c2)O1 (racemic) [Compound I-291]
IC50 [1]: 2 nM

COCCN1C[C@@H](NC(=O)Nc2c(C)c(-c3cnc(N4C[C@H]5C[C@@H]4CO5)nc3)nn2-c2ccccc2)[C@H](c2ccnc(F)c2)O1 [Compound I-590]
IC50 [2]: < 100 nM

COCC[C@@H]1C[C@@H](NC(=O)Nc2c(C)c(C3=CCN(C(=O)OC(C)(C)C)CC3)nn2-c2ccccc2)[C@H](c2ccc(F)c(F)c2)O1 (racemic) [Compound I-54]
IC50 [3]: < 100 nM

Cc1c(OCC2CCN(C)CC2)nn(-c2ccccc2)c1NC(=O)N[C@@H]1CN(CC2CC2)O[C@H]1c1ccc(F)c(F)c1 (racemic) [Compound I-653]
IC50 [2]: < 100 nM

COCCN1C[C@@H](NC(=O)Nc2c(C)c(-c3cnc4c(c3)c(CN3CCCC3)nn4C)nn2-c2ccccc2)[C@H](c2ccnc(F)c2)O1 (racemic) [Compound I-412]
IC50 [4]: < 100 nM

COCCN1C[C@@H](NC(=O)Nc2c(C)c(-c3cnc(C(N)=O)c(F)c3)nn2-c2ccccc2)[C@H](c2ccnc(F)c2)O1 (racemic) [Compound I-255]
IC50 [5]: < 100 nM

COCCN1C[C@@H](NC(=O)Nc2c(C)c(-c3ccc4nnc(C)n4c3)nn2-c2ccccc2)[C@H](c2ccnc(F)c2)O1 (racemic) [Compound I-158]
IC50 [3]: < 100 nM

COCCN1C[C@@H](NC(=O)Nc2c(C)c(-c3cnc(N4CC(O)C4)nc3)nn2-c2ccccc2)[C@H](c2cnc(F)c(F)c2)O1 [Compound I-210]
IC50 [5]: < 100 nM

CNC(=O)c1cc(-c2nn(-c3ccccc3)c(NC(=O)N[C@@H]3C[C@@H](CCOC)O[C@H]3c3ccnc(F)c3)c2C)cn(C)c1=O [Compound I-271]
IC50 [5]: < 100 nM

COCCN1C[C@@H](NC(=O)Nc2c(C)c(-c3cnc(N4CCN(C(=O)OCc5ccccc5)CC4)nc3)nn2-c2ccccc2)[C@H](c2ccnc(F)c2)O1 (racemic) [Compound I-371]
IC50 [4]: < 100 nM

CCOc1nn(-c2ccccc2)c(NC(=O)N[C@@H]2CN(CCOC)O[C@H]2c2ccnc(F)c2)c1C (racemic) [Compound I-523]
IC50 [6]: < 100 nM

COCCN1C[C@@H](NC(=O)Nc2c(C)c(-c3cnc4c(c3)nc(N3CCCC3)n4C)nn2-c2ccccc2)[C@H](c2ccnc(F)c2)O1 (racemic) [Compound I-398]
IC50 [4]: < 100 nM

COCCN1C[C@@H](NC(=O)Nc2c(C)c(OCCN(C)C)nn2-c2ccccc2)[C@H](c2ccc(F)c(F)c2)O1 [Compound I-572]
IC50 [6]: < 100 nM

COCCN1C[C@@H](NC(=O)Nc2c(C)c(-c3cnc(C(=O)OC)c(CF)c3)nn2-c2ccccc2)[C@H](c2ccnc(F)c2)O1 (racemic) [Compound I-435]
IC50 [4]: < 100 nM

COCCC1C[C@@H](NC(=O)Nc2c(C)c(OCC(C)(C)O)nn2-c2ccccc2)[C@H](c2ccccc2)O1 (stereo partly shown) [Compound I-295]
IC50 [5]: 100 to 1000 nM

COCCN1C[C@@H](NC(=O)Nc2c(C)c(-c3ccc(C(=O)O)nc3)nn2-c2ccccc2)[C@H](c2ccc(F)c(F)c2)O1 (racemic) [Compound I-214]
IC50 [5]: < 100 nM

COCCN1C[C@@H](NC(=O)Nc2c(C)c(-c3ccc(OC)nc3)nn2-c2ccccc2)[C@H](c2ccnc(F)c2)O1 [Compound I-509]
IC50 [1]: 1.3 nM

COCCN1C[C@@H](NC(=O)Nc2c(C)c(-c3cnc(OC4CCOCC4)nc3)nn2-c2ccccc2)[C@H](c2ccnc(F)c2)O1 (racemic) [Compound I-443]
IC50 [4]: < 100 nM

CNC(=O)c1cc(-c2nn(-c3ccccc3)c(NC(=O)N[C@@H]3CN(CCOC)O[C@H]3c3ccc(F)c(F)c3)c2C)cnc1OC [Compound I-391]
IC50 [4]: < 100 nM

COCCN1CC(NC(=O)Nc2c(C)c(-c3cnc(N4CC5(CCO5)C4)nc3)nn2-c2ccccc2)C(c2ccnc(F)c2)O1 (racemic) [Compound I-581]
IC50 [2]: < 100 nM

COCCN1C[C@@H](NC(=O)Nc2c(C)c(-c3cnc(OC)c(C(=O)NC4CCOCC4)c3)nn2-c2ccccc2)[C@H](c2ccnc(F)c2)O1 (racemic) [Compound I-111]
IC50 [3]: < 100 nM

COCCN1C[C@@H](NC(=O)Nc2c(C)c(-c3cnc4c(c3)nc(C(=O)NCCO)n4C)nn2-c2ccccc2)[C@H](c2ccnc(F)c2)O1 (racemic) [Compound I-225]
IC50 [5]: < 100 nM

COCCN1C[C@@H](NC(=O)Nc2c(C)c(-c3ccc(=O)n(C)c3)nn2-c2ccccc2)[C@H](c2ccc(F)c(F)c2)O1 [Compound I-498]
IC50 [4]: < 100 nM

COCCN1C[C@@H](NC(=O)Nc2c(C)c(-c3ccc4c(c3)N(C)C(=O)CO4)nn2-c2ccccc2)[C@H](c2ccnc(F)c2)O1 (racemic) [Compound I-365]
IC50 [4]: < 100 nM

CNC(=O)c1cc(-c2cc(NC(=O)N[C@@H]3CN(CCOC)O[C@H]3c3ccnc(F)c3)n(C)n2)cnc1OC (racemic) [Compound I-95]
IC50 [3]: > 1000 nM

COCCN1C[C@@H](NC(=O)Nc2c(C)c(-c3cnc(CN(C)C)nc3)nn2-c2ccccc2)[C@H](c2ccc(F)c(F)c2)O1 (racemic) [Compound I-528]
IC50 [6]: < 100 nM

COCCN1C[C@@H](NC(=O)Nc2c(C)c(-c3ccc(C)nc3)nn2-c2ccccc2)[C@H](c2ccc(F)c(F)c2)O1 [Compound I-556]
IC50 [6]: < 100 nM

COCCN1C[C@@H](NC(=O)Nc2c(C)c(-c3ccc4nc(CO)cn4c3)nn2-c2ccccc2)[C@H](c2ccc(F)c(F)c2)O1 [Compound I-451]
IC50 [4]: < 100 nM

CNS(=O)(=O)c1cc(-c2nn(-c3ccccc3)c(NC(=O)N[C@@H]3CN(CCOC)O[C@H]3c3ccc(F)c(F)c3)c2C)cn(C)c1=O (racemic) [Compound I-177]
IC50 [5]: < 100 nM

CCN1C[C@@H](NC(=O)Nc2c(C)c(-c3cnc(OC)c(C(=O)NC)c3)nn2-c2ccccc2)[C@H](c2ccc(F)c(F)c2)O1 (racemic) [Compound I-406]
IC50 [1]: 2.2 nM

Cc1c(OCC2CCNCC2)nn(-c2ccccc2)c1NC(=O)N[C@@H]1CN(CC(F)F)O[C@H]1c1ccc(F)c(F)c1 (racemic) [Compound I-561]
IC50 [6]: < 100 nM

COCCN1C[C@@H](NC(=O)Nc2c(C)c(-c3cnc(OC)c(C(=O)NC4CCS(=O)(=O)CC4)c3)nn2-c2ccccc2)[C@H](c2cnc(OC)c(F)c2)O1 (racemic) [Compound I-104]
IC50 [3]: < 100 nM

COCCN1C[C@@H](NC(=O)Nc2c(C)c(C3=CCN(C(C)=O)CC3)nn2-c2ccccc2)[C@H](c2ccc(F)c(F)c2)O1 (racemic) [Compound I-31]
IC50 [1]: 0.78 nM

COCCN1C[C@@H](NC(=O)Nc2c(C)c(-c3cnc(OC)c(COC(C)=O)c3)nn2-c2ccccc2)[C@H](c2ccc(F)c(F)c2)O1 [Compound I-636]
IC50 [2]: < 100 nM

COCC[C@@H]1C[C@@H](NC(=O)Nc2c(C)c(-c3cnc(C)nc3)nn2-c2ccccc2)[C@H](c2ccc(F)c(F)c2)O1 (racemic) [Compound I-28]
IC50 [1]: 2.5 nM

COCCN1C[C@@H](NC(=O)Nc2c(C)c(-c3ccc(N4CC(OC)C4)nc3)nn2-c2ccccc2)[C@H](c2ccc(F)c(F)c2)O1 [Compound I-558]
IC50 [6]: < 100 nM

COCCN1C[C@@H](NC(=O)Nc2c(C)c(-c3cnc(OC)c(C(=O)NOCCF)c3)nn2-c2ccccc2)[C@H](c2ccnc(F)c2)O1 (racemic) [Compound I-261]
IC50 [5]: < 100 nM

COCCN1C[C@@H](NC(=O)Nc2c(C)c(-c3cnc(N4CC(O)C4)nc3)nn2-c2ccccc2)[C@H](c2ccc(F)cc2)O1 (racemic) [Compound I-265]
IC50 [5]: < 100 nM

COCCN1C[C@@H](NC(=O)Nc2c(C)c(-c3ccc(N4C[C@H]5COC[C@@H](C4)N5C)nc3)nn2-c2ccccc2)[C@H](c2ccnc(F)c2)O1 (racemic) [Compound I-396]
IC50 [4]: < 100 nM

COCCN1C[C@@H](NC(=O)Nc2c(C)c(-c3cnc(-c4cnoc4)nc3)nn2-c2ccccc2)[C@H](c2ccnc(F)c2)O1 (racemic) [Compound I-476]
IC50 [4]: < 100 nM

COCCN1C[C@@H](NC(=O)Nc2c(C)c(-c3ccn4nc(C)nc4c3)nn2-c2ccccc2)[C@H](c2ccnc(F)c2)O1 (racemic) [Compound I-156]
IC50 [3]: < 100 nM

CNC(=O)c1ncc(-c2nn(-c3ccccc3)c(NC(=O)N[C@@H]3CN(CCOC)O[C@H]3c3cnc(F)c(F)c3)c2C)cc1F (racemic) [Compound I-313]
IC50 [1]: 3.6 nM

COCCN1C[C@@H](NC(=O)Nc2c(C)c(N3CCN(C)C(=O)C3)nn2-c2ccccc2)[C@H](c2ccc(F)cc2)O1 [Compound I-345]
IC50 [4]: < 100 nM

COCCN1C[C@@H](NC(=O)Nc2c(C)c(-c3cnc(OC4COC4)nc3)nn2-c2ccccc2)[C@H](c2ccnc(F)c2)O1 (racemic) [Compound I-465]
IC50 [4]: < 100 nM

COCCN1C[C@@H](NC(=O)Nc2c(C)c(-c3ccc4nc(C)nn4c3)nn2-c2ccccc2)[C@H](c2ccnc(F)c2)O1 (racemic) [Compound I-159]
IC50 [1]: 2.1 nM

COCCN1C[C@@H](NC(=O)Nc2c(C)c(-c3ccc(C#N)cc3)nn2-c2ccccc2)[C@H](c2cnc(F)c(F)c2)O1 (racemic) [Compound I-60]
IC50 [3]: < 100 nM

CNC(=O)c1ncc(-c2nn(-c3ccccc3)c(NC(=O)N[C@@H]3CN(CCOC)O[C@H]3c3ccnc(F)c3)c2C)cc1F (racemic) [Compound I-256]
IC50 [5]: < 100 nM

COCC[C@@H]1C[C@@H](NC(=O)Nc2c(C)c(-c3cnc4c(cnn4C)c3)nn2-c2ccccc2)[C@H](c2ccnc(F)c2)O1 (racemic) [Compound I-97]
IC50 [3]: < 100 nM

COCCN1C[C@@H](NC(=O)Nc2c(C)c(-c3ccnc(C(=O)OC)c3)nn2-c2ccccc2)[C@H](c2ccc(F)c(F)c2)O1 (racemic) [Compound I-189]
IC50 [5]: < 100 nM

CNC(=O)c1cc(-c2nn(-c3ccc(F)c(F)c3)c(NC(=O)N[C@@H]3CN(CCOC)O[C@H]3c3ccc(F)c(F)c3)c2C)cnc1OC (racemic) [Compound I-181]
IC50 [5]: < 100 nM

COCCN1C[C@@H](NC(=O)Nc2c(C)c(-c3cc(C(N)=O)c(=O)n(C)c3)nn2-c2ccccc2)[C@H](c2ccnc(F)c2)O1 (racemic) [Compound I-105]
IC50 [3]: < 100 nM

CCN1C[C@@H](NC(=O)Nc2c(C)c(OCC3CCN(C)CC3)nn2-c2ccccc2)[C@H](c2ccc(F)cc2)O1 (racemic) [Compound I-569]
IC50 [6]: < 100 nM
